Target: Cyclin-dependent kinase 4/cyclin D1 (Homo sapiens, UniProt P11802+P24385)
Assay: Mobility Shift Assay : The purpose CDK4/Cyclin D1 assay is to evaluate the inhibition (% inhibition, Kiapp and Ki values) in the presence of small molecule inhibitors by using a fluorescence based microfluidic mobility shift assay. CDK4/Cyclin D1 catalyzes the production of ADP from ATP that accompanies the phosphoryl transfer to the substrate peptide 5-FAM-Dyrktide (5-FAM-[…]) (SEQ ID NO:1). The mobility shift assay electrophoretically separates the fluorescently labeled peptides (substrate and phosphorylated product) following the kinase reaction. Both substrate and product are measured and the ratio of these values is used to generate % Conversion of substrate to product by the LabChip EZ Reader. […] The reaction was stopped after 195 minutes by the addition of 50 μL of 30 mM EDTA. Ki determinations were made from a plot of the fractional velocity as a function of inhibitor concentration fit to the Morrison equation with the enzyme concentration as a variable.
Assay type: protein-complex assay

Cyclin-dependent kinase 4/cyclin D1, sequence (P11802 whole entry): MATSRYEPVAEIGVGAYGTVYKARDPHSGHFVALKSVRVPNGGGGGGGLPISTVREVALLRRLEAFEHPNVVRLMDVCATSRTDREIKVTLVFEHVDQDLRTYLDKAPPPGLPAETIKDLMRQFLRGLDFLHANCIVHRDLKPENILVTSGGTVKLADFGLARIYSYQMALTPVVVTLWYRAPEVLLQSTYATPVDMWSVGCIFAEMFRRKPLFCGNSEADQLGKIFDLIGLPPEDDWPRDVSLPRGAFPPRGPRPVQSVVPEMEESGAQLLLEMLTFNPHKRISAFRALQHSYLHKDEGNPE
Cyclin-dependent kinase 4/cyclin D1, sequence (P24385 whole entry): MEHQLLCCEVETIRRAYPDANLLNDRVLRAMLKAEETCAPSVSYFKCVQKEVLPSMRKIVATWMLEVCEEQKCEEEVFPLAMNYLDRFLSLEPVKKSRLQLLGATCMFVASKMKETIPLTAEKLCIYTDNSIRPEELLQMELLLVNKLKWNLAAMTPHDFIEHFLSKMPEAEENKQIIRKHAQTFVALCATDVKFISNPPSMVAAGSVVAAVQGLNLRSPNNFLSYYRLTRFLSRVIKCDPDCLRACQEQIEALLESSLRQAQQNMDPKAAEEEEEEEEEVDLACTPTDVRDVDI

Ki: 0.1 nM
Compound: CC(C)n1c([C@H](C)O)nc2c(F)cc(-c3cc(N[C@@H]4CCN(S(C)(=O)=O)C[C@H]4O)ncc3Cl)cc21 (single isomer, unassigned)

Source: ChEMBL document CHEMBL5728923, “Cyclin dependent kinase inhibitors” (2022)
